Measured values as given in patent US10064858B2, “Methods and compositions for treating bacterial infections with iron chelators” (THE UNITED STATES OF AMERICA, AS REPRESENTED BY THE …, priority 2011, dated 2018).
Where two headings read alike, the source gives them in different places.

Columns and labels:
[1] = tested on: Acinetobacter baumannii; assay: MIC in RPMI1640 media (Table 2); type: cell-based
Procedure: (§1) […] […] Tests were performed in triplicate. MIC of iron chelators were determined for noscomial ESKAPE pathogens.
(§2) This media is closer to the iron levels in the human body. MICs are in ug/mL.

[2] = tested on: E. coli; assay: MIC in RPMI1640 media (Table 2); type: cell-based
Procedure: as §1, §2

[3] = tested on: K. pneumonia; assay: MIC in RPMI1640 media (Table 2); type: cell-based; settings: Klebsiella pneumoniae
Procedure: as §1, §2

[4] = tested on: P. aeruginosa; assay: MIC in RPMI1640 media (Table 2); type: cell-based; settings: Pseudomonas aeruginosa
Procedure: as §1, §2

[5] = tested on: clinical isolates of A. baumannii; assay: MIC for clinical isolates in RPMI (low iron) media (Table 4); type: cell-based; design: key to MIC of Iron Chelators: NG = no growth in table 4; settings: for MIC: Acinetobacter baumannii
Procedure: as §1
For a number of strains, the iron chelators produced no growth of bacteria (NG).

[6] = tested on: AB5075; assay: Time-kill assay in M9 minimal media; type: cell-based, A. baumannii; settings: 24 hours
Procedure: (§3) Reductions in colony forming units (CFU)/mL were determined over time (time-kill assay) after exposure to VK28 and deferiprone (DFP), the two iron chelators that performed best in MIC assays when compared to controls. To better represent the iron content found in the human body, MIC and time-kill assays were also determined in minimal media and tissue culture media. Time-Kill assays were performed as previously described in G. P. Neupane et al., “In vitro time-kill activities of ciprofloxacin alone and in combination with the iron chelator deferasirox against Vibrio vulnificus,” European Journal of Clinical Microbiology and Infectious Diseases, 407-410 (2010); and R. L. White, et al., “Comparison of Three Different In Vitro Methods of Detecting synergy: Time-Kill, Checkerboard, and E test,” Journal of Antimicrobial Agents and Chemotherapy, 1914-1918 (1996). Initial inocula, for example 1×10^6 CFU/mL or 1×10^7 CFU/mL were challenged with iron chelator with and/or without an antibiotic. Cells were allowed to grow in CAMHB at 37° C. for 24 hours. Time-kill results were analyzed by determining the change in log 10 numbers of CFU/ml at 0, 6, and 24 h, compared to counts at 0 h. Antimicrobials were considered bactericidal at the lowest concentration that reduced the size of the original inoculum by >3 log 10 CFU/ml (99.9%) over each of the time periods and were considered bacteriostatic if the inoculum's size was reduced by 0 to <3 log 10 CFU/ml.
The untreated sample (♦) had greater than 1×10^9 CFU/mL after 9 hours that was sustained at 24 hours.

[7] = tested on: E. coli EC35218; assay: Time-kill assay in CAMHB; type: cell-based; settings: 1×MIC and 2×MIC VK28; CAMHB
Procedure: as §3
In this example, time-kill assays were performed as described in Example 9 against different multi-drug resistant bacteria, namely E. coli and MRSA.
In this example, time-kill assays were performed as described in Example 9 using ApoL1 as the iron chelator against two different E. coli strains. […] Time-kill results were analyzed by determining the change in log 10 numbers of CFU/mL at 6 and 24 hours.
In this example, time-kill assays were performed as described in Example 9 using Apo6619 as the iron chelator in combination with Rifampin against E. coli 35718. […] Time-kill results were analyzed by determining the change in log 10 numbers of CFU/mL at 0, 5 and 24 hours.

[8] = tested on: multi-drug resistant bacterial species; assay: Time kill method, synergy with rifampin (summary); type: cell-based
Procedure: as §3

[9] = tested on: multi-drug resistant bacterial species; assay: Checkerboard, synergy with rifampin (summary); type: cell-based
Excerpt: Drug interactions were initially evaluated with the “checkerboard” microdilution design, which provided a matrix of all drug combinations assayed in terms of fractions of the previously determined MIC. The checkerboard microdilution design is described in R. J. Tallarida, “Drug Synergism: Its Detection and Applications,” Journal of Pharmacology and Experimental Therapeutics, 865-872 (2001); and in R. L. White, et al., (1996), supra. FIGS. 39A and 39B show the wellplates having different concentrations of iron chelator and antibiotic, as labeled along the x-axis and y-axis.
The checkerboard assay was used to asses other combinations of iron chelators and antibiotics. The fractional inhibitory concentration index (FIC), which was calculated as follows: FIC=(MIC A in combination/MIC A)+(MIC B in combination/MIC B). Interaction was defined as synergistic if the FIC was <1.0, preferably <0.5, no interaction if the FIC was >1.0 and <4.0, and antagonistic if the FIC was >4.0.
The assay was run against the multi-drug resistant bacterial species AB 19606, AB 17978, KP ndm, PA PAO1, PA 27853, EC 35718, and EC 43888. Blank spaces indicate concentrations not tested. […] Against the species PA PAO1 and PA 27853, all the antibiotics except for Ami.

Work on OCCN1CCN(Cc2ccc(O)c3ncccc23)CC1 [VK28, 5-(4-(2-hydroxyethyl)piperazin-1-ylmethyl)-8-hydroxyquinoline] yielded an MIC ([1]; ATCC17978, ATCC 17978, read-out: MIC of Iron Chelators) of 32 µg/mL, an MIC ([1]; ATCC19606, ATCC 19606, read-out: MIC of Iron Chelators) of 8 µg/mL and an MIC ([2]; Escherichia coli, 35718, read-out: MIC of Iron Chelators) of 32 µg/mL. It also gave an MIC ([2]; Escherichia coli, ATCC43888, ATCC 43888 (0157:H7), read-out: MIC of Iron Chelators) of 8 µg/mL, an MIC ([3]; ATCC700603, ATCC 700603, read-out: MIC of Iron Chelators) of 16 µg/mL and an MIC ([3]; BAA2146, BAA-2146, read-out: MIC of Iron Chelators) of 16 µg/mL. The MIC ([4]; ATCC27853, ATCC 27853, read-out: MIC of Iron Chelators) was 16 µg/mL, the MIC ([4]; PAO1, read-out: MIC of Iron Chelators) was 16 µg/mL and the “MIC of Iron Chelators” value ([5]; AB967) was “NG”. For the same compound, the “MIC of Iron Chelators” value ([5]; AB2828) was “NG”, the “MIC of Iron Chelators” value ([5]; AB3340) was “NG” and the “MIC of Iron Chelators” value ([5]; AB3560) was “NG”. The “MIC of Iron Chelators” value ([5]; AB3927) was “NG”, the MIC ([5]; AB3638, read-out: MIC of Iron Chelators) was 8 µg/mL and the MIC ([5]; AB3785, read-out: MIC of Iron Chelators) was 8 µg/mL. For the same compound, the MIC ([5]; AB3806, read-out: MIC of Iron Chelators) was 8 µg/mL, the MIC ([5]; AB3917, read-out: MIC of Iron Chelators) was 4 µg/mL and the MIC ([5]; AB4025, read-out: MIC of Iron Chelators) was 8 µg/mL. For the same compound, the MIC ([5]; AB4026, read-out: MIC of Iron Chelators) was 8 µg/mL, the MIC ([5]; AB4027, read-out: MIC of Iron Chelators) was 8 µg/mL and the MIC ([5]; AB4052, read-out: MIC of Iron Chelators) was 8 µg/mL. For the same compound, the MIC ([5]; AB4269, read-out: MIC of Iron Chelators) was 8 µg/mL, the MIC ([5]; AB4448, read-out: MIC of Iron Chelators) was 8 µg/mL and the MIC ([5]; AB4456, read-out: MIC of Iron Chelators) was 8 µg/mL. It also gave an MIC ([5]; AB4490, read-out: MIC of Iron Chelators) of 8 µg/mL, an MIC ([5]; AB4498, read-out: MIC of Iron Chelators) of 8 µg/mL and an MIC ([5]; AB4795, read-out: MIC of Iron Chelators) of 4 µg/mL. The MIC ([5]; AB4857, read-out: MIC of Iron Chelators) was 8 µg/mL, the MIC ([5]; AB4878, read-out: MIC of Iron Chelators) was 8 µg/mL and the MIC ([5]; AB4932, read-out: MIC of Iron Chelators) was 8 µg/mL. It also gave an MIC ([5]; AB4957, read-out: MIC of Iron Chelators) of 8 µg/mL, an MIC ([5]; AB4991, read-out: MIC of Iron Chelators) of 8 µg/mL and an MIC ([5]; AB5001, read-out: MIC of Iron Chelators) of 8 µg/mL. The MIC ([5]; AB5075, read-out: MIC of Iron Chelators) was 8 µg/mL, the MIC ([5]; AB5197, read-out: MIC of Iron Chelators) was 4 µg/mL and the MIC ([5]; AB5256, read-out: MIC of Iron Chelators) was 8 µg/mL. For the same compound, the MIC ([5]; AB5674, read-out: MIC of Iron Chelators) was 8 µg/mL, the MIC ([5]; AB5711, read-out: MIC of Iron Chelators) was 8 µg/mL and the “time-kill course of CFU/ml” value ([6]; 0.5×MIC) was “slight inhibitory effect on the CFU/ml over the 24 hours”. For the same compound, the “time-kill course of CFU/ml” value ([6]; 1×MIC) was “slight inhibitory effect on the CFU/ml over the 24 hours”, the “time-kill course of CFU/ml” value ([6]; 2×MIC) was “slight inhibitory effect on the CFU/ml over the 24 hours” and the time-kill effect [7] was “bacteriostatic (considered bacteriostatic if the inoculum's size was reduced by 0 to <3 log 10 CFU/ml)”. The “synergy with rifampin, time kill method” value [8] was “strong synergy” and the “synergy with rifampin, checkerboard” value [9] was “moderate degrees of synergy”.
